From PubChem BioAssay AID2060891 (Molecular Pharmacology Branch, DTP, NCI, 2025)

Test system: K98450-129-R-PDC complex spheroid growth, percent test/control
Test: Anticancer human tumor K98450-129-R-PDC patient-derived colon adenocarcinoma cell line growth inhibition [RAS]
Details: for IC50: curve of first compound; for viability, T/C: stronger effect = lower value
Summary of the method: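 Multi-cell-type spheroids: tumor cells plus HUVEC endothelial cells and mesenchymal stem cells. RAS-pathway inhibitors were combined with targeted agents, each dosed in half-log steps down from clinical Cmax, or from 10 microM when Cmax was unknown.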
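Further: spheroids exposed to agents for seven days before the viability readout.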
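Wherever viability, T/C is given: luminescence used as a proxy for viable cell amount.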

Structure (SMILES): CC(C)n1nc(-c2ccc3oc(N)nc3c2)c2c(N)ncnc21 + CCn1c(-c2cc(N3CCN(C)CC3)cnc2C(C)OC)c2c3cc(ccc31)-c1csc(n1)CC(NC(=O)C1CC1C)C(=O)N1CCCC(N1)C(=O)OCC(C)(C)C2
- IC50 (second compound 0.000949 µM): > 100 nM
- IC50 (second compound 0.003 µM): > 100 nM
- IC50 (second compound 0.00949 µM): > 100 nM
- IC50 (second compound 0.03 µM): 10.1 nM
- IC50 (second compound 0.0949 µM): < 0.316 nM
- IC50 (second compound 0.3 µM): < 0.316 nM
- viability, T/C (second compound 0.000949 µM, first compound 0.000316 µM): 98.9%
- viability, T/C (second compound 0.000949 µM, first compound 0.001 µM): 80.9%
- viability, T/C (second compound 0.000949 µM, first compound 0.00316 µM): 91.9%
- viability, T/C (second compound 0.000949 µM, first compound 0.01 µM): 70.7%
- viability, T/C (second compound 0.000949 µM, first compound 0.0316 µM): 82.7%
- viability, T/C (second compound 0.000949 µM, first compound 0.1 µM): 70.7%
- viability, T/C (second compound 0.003 µM, first compound 0.000316 µM): 88.4%
- viability, T/C (second compound 0.003 µM, first compound 0.001 µM): 70.8%
- viability, T/C (second compound 0.003 µM, first compound 0.00316 µM): 76.1%
- viability, T/C (second compound 0.003 µM, first compound 0.01 µM): 65.4%
- viability, T/C (second compound 0.003 µM, first compound 0.0316 µM): 71.2%
- viability, T/C (second compound 0.003 µM, first compound 0.1 µM): 64%
- viability, T/C (second compound 0.00949 µM, first compound 0.000316 µM): 80.7%
- viability, T/C (second compound 0.00949 µM, first compound 0.001 µM): 60.1%
- viability, T/C (second compound 0.00949 µM, first compound 0.00316 µM): 63.9%
- viability, T/C (second compound 0.00949 µM, first compound 0.01 µM): 57.4%
- viability, T/C (second compound 0.00949 µM, first compound 0.0316 µM): 60.2%
- viability, T/C (second compound 0.00949 µM, first compound 0.1 µM): 48.1%
- viability, T/C (second compound 0.03 µM, first compound 0.000316 µM): 44.8%
- viability, T/C (second compound 0.03 µM, first compound 0.001 µM): 57.9%
- viability, T/C (second compound 0.03 µM, first compound 0.00316 µM): 46.3%
- viability, T/C (second compound 0.03 µM, first compound 0.01 µM): 51.4%
- viability, T/C (second compound 0.03 µM, first compound 0.0316 µM): 36.9%
- viability, T/C (second compound 0.03 µM, first compound 0.1 µM): 36.1%
- viability, T/C (second compound 0.0949 µM, first compound 0.000316 µM): 19.6%
- viability, T/C (second compound 0.0949 µM, first compound 0.001 µM): 20.5%
- viability, T/C (second compound 0.0949 µM, first compound 0.00316 µM): 17.9%
- viability, T/C (second compound 0.0949 µM, first compound 0.01 µM): 15.8%
- viability, T/C (second compound 0.0949 µM, first compound 0.0316 µM): 14.6%
- viability, T/C (second compound 0.0949 µM, first compound 0.1 µM): 11.1%
- viability, T/C (second compound 0.3 µM, first compound 0.000316 µM): 9.98%
- viability, T/C (second compound 0.3 µM, first compound 0.001 µM): 11%
- viability, T/C (second compound 0.3 µM, first compound 0.00316 µM): 10.3%
- viability, T/C (second compound 0.3 µM, first compound 0.01 µM): 8.15%
- viability, T/C (second compound 0.3 µM, first compound 0.0316 µM): 7.88%
- viability, T/C (second compound 0.3 µM, first compound 0.1 µM): 7.36%
